Experiment [1] has as its system lung-(NCI-H292) and kidney-(MDCK) derived epithelial cells. The experiment is described as follows: Intracellular ROS (H2DCF-DA) in other epithelial cells. The class given is cell-based. Particulars: pre-treatment of epithelial cells, NAC 1 mM, FIG. 2B. Here is the method: Cell Lines. Cells were obtained from the ATCC (A549, NCI-H292 and MDCK), or Cambrex Bio Science (Walkersville, Md.) (NHBE). Cells were maintained in humidified CO2 (5%) incubator and medium as recommended by the suppliers. Measurements of Reactive Oxygen Species. Epithelial cells (A549, NCI-H292, NHBE, and MDCK) were “loaded” with 50 μM H2DCF-DA (Molecular Probes, Eugene, Oreg.) at 37° C. for 15 minutes. After washing out excess probe, cells were treated with various allergenic extracts with or without NADPH (100 μM), NAC (1 mM), or NADPH oxidase inhibitors: quinacrine (500 μM) and diphenylene iodonium (100 μM). The change in fluorescence intensity was assessed in a FLx800 micro plate reader (Bio-Tek Instruments, Winooski, Vt.), or by flow cytometry (FACScan, Becton Dickinson, Franklin Lakes, N.J.) at 488 nm excitation and 530 nm emission. Each data point represents the mean fluorescence from three or more independent experiments, and is expressed ±s.e.m.

For another experiment, the system named is NADPH oxidase. The experiment is described as follows: NBT assay (reduction of NBT to formazan). Format: biochemical, ragweed (Ambrosia artemisiifolia). As to the method: NBT Assay. […]. Mixtures were then incubated for 15 min at 37° C., and the sedimented formazan was dissolved in methanol. The absorbance was determined at 530 nm in a spectrophotometer (DU 530, Beckman Instruments, Fullerton, Calif.).

Experiment [2] has as its system normal human bronchial epithelial (NHBE) cells. Nature of the experiment: Intracellular ROS (H2DCF-DA) in cultured NHBE cells. The class given is cell-based. The following applies: quinacrine 500 μM, diphenylene iodonium 100 μM, FIG. 2A. As to the method: Cell Lines. Cells were obtained from the ATCC (A549, NCI-H292 and MDCK), or Cambrex Bio Science (Walkersville, Md.) (NHBE). Cells were maintained in humidified CO2 (5%) incubator and medium as recommended by the suppliers.
Measurements of Reactive Oxygen Species. Epithelial cells (A549, NCI-H292, NHBE, and MDCK) were “loaded” with 50 μM H2DCF-DA (Molecular Probes, Eugene, Oreg.) at 37° C. for 15 minutes. After washing out excess probe, cells were treated with various allergenic extracts with or without NADPH (100 μM), NAC (1 mM), or NADPH oxidase inhibitors: quinacrine (500 μM) and diphenylene iodonium (100 μM). The change in fluorescence intensity was assessed in a FLx800 micro plate reader (Bio-Tek Instruments, Winooski, Vt.), or by flow cytometry (FACScan, Becton Dickinson, Franklin Lakes, N.J.) at 488 nm excitation and 530 nm emission. Each data point represents the mean fluorescence from three or more independent experiments, and is expressed ±s.e.m.

The test system of experiment [3] is superoxide anions (O2.^−). The experiment is described as follows: Cytochrome c assay for detecting O2.− generation. Particulars: SOD 50 U/ml added to pRWE^NOX+NADPH+Cyt c. The class given is biochemical, ragweed (Ambrosia artemisiifolia). Here is the method: Cytochrome c Assay for Detecting O2.^− Generation. The method described by Messner and Imaly was used. The assay was carried out in PBS with 10 μg pRWE and 10 μM oxidized cytochrome c (Sigma-Aldrich) in the reaction mixture. The reactions were started by adding 100 μM NADPH, and the increase in A550 nm was recorded for 5 min. Saturating amounts of SOD 9(50 U/ml, Sigma-Aldrich) were used in a reference reaction to determine any such O2.^− independent reduction of cytochrome c by the sample.

Read-outs that look alike come from different tables or passages of the source.

Turning to `CC(=O)N[C@@H](CS)C(=O)O` [N-acetyl-L-cysteine], the “effect on RWE-induced increase in intracellular ROS levels” value in experiment [1] is “inhibited”; in experiment [1] (listed as NAC) it was “inhibits”.

Consider `[N-]=[N+]=[N-].[Na+]` [azide, sodium azide], for which the “NBT reducing activity of pRWE^NOX in presence of the agent” value (“NBT reducing activity of pRWE^NOX” below) in the experiment on NADPH oxidase is recorded as “resistant”.

As to `c1ccc2c(c1)[I+]c1ccccc1-2` [diphenyleneiodonium], the “effect on extract-induced elevation in ROS levels” value in experiment [2] is given as “inhibited”. Also, the “NBT reducing activity of pRWE^NOX” value in the experiment on NADPH oxidase (pRWE^NOX, FIG. 1A) was “inhibited”.

Take `CCN(CC)CCCC(C)Nc1c2ccc(Cl)cc2nc2ccc(OC)cc12` (centres unmarked) [quinacrine]: in experiment [2], the “effect on extract-induced elevation in ROS levels” value is given as “inhibited”. For the same molecule, in the experiment on NADPH oxidase (pRWE^NOX, FIG. 1A), the “NBT reducing activity of pRWE^NOX” value is “inhibited”.

superoxide dismutase: the “effect on the pRWE^NOX-induced increase in absorbance at 550 nm” value in experiment [3] is on record as “abrogated”.
